Assay [1] has as its system IL-2 production in Jurkat E6.1 cells. The experiment in a line: Evaluation of IL-2 production in human T-cell leukemia cell line Jurkat E6.1 (TCR stimulation anti-CD3/anti-CD28). The format is cell-based. The note with it: Jurkat E6.1, 24 h, concentration at which IL-2 increased to 10 times the solvent control, Jurkat E6.1, anti-CD3/anti-CD28, 24 hours. The method, then:
Test Example 2. Evaluation of Il-2 Production in Human T-Cell Leukemia Cell Line Jurkat E6.1
The effect of the test compound on the IL-2 production by T-cell receptor (TCR) stimulation (anti-CD3/anti-CD28) in Jurkat E6.1 cells (ECACC, 88042803) was evaluated.
A 5 μg/mL anti-CD3 antibody (eBioscience, Inc., OKT3 clone) diluted with phosphate buffer saline (PBS) was added to a 96-well plate (Iwaki & Co., Ltd.) at 50 μL/well, and left standing at 4° C. for 12 hours or more to provide an anti-CD3 antibody-coated plate in advance. When the plate was used for experiments, the plate was washed with 200 μL of PBS once, an anti-CD28 antibody (eBioscience, Inc., 28.2 clone) diluted to a concentration of 10 μg/mL with a culture medium (RPMI1640 (Sigma-Aldlich Co. LLC.) containing 10% fetal bovine serum (Hyclone Laboratories, Inc.)) was then added at 10 μL/well, and the plate was used for assay as a culture plate for TCR stimulation.
Subsequently, the test compound was mixed with Jurkat E6.1 cells in such a manner that an intended final concentration was obtained, and the mixture was plated at 90 μL/well so that the number of cells per well was 1×10^5(that is, finally the culture was performed at 1×10^5 cells/100 μL/well). For culture cell conditions, the culture was performed at 37° C. in the presence of 5% CO2 using RPMI1640 medium containing 10% fatal bovine serum.
After 24 hours, the culture supernatant was collected, and IL-2 was quantitatively determined using AlphaLISA human IL2 Immunoassay Research Kit (PerkinElmer, Inc.). The IL-2 measurement was performed under Alpha Screen standard setting conditions (the fluorescence intensity at 570 nm was measured with an excitation wavelength of 680 nm) using EnVision 2104-0010 and EnVision 2104-0020 (PerkinElmer, Inc.). The IL-2 quantitative value of the solvent treatment control was set to 1, and the test compound concentration at which the IL-2 quantitative value of the test compound treatment sample increased to 10 times the IL-2 quantitative value of the control (EC10fold) was calculated by inverse estimation with the aid of Sigmoid-Emax model non-linear regression analysis. […] In the table, Ex represents the number of each Example described below.

The subject of another assay is B16-F1 cells. The experiment in a line: Evaluation of antitumor effect in syngeneic mouse model bearing mouse melanoma cell line B16-F1. In kind it is in vivo. Particulars: po, 240 h, C57BL/6J mice bearing B16-F1, read-out: Antitumor effect (relative tumor growth inhibition); for inhibition in vivo at 0.03 mg/kg: 0.03 mg/kg orally once daily for 10 days; for inhibition in vivo at 0.3 mg/kg: 0.3 mg/kg orally once daily for 10 days. As to the method: Test Example 3: Evaluation of Antitumor Effect in Syngeneic Mouse Model Bearing Mouse Melanoma Cell Line B16-F1
A cell suspension liquid prepared by suspending B16-F1 cells (ATCC, CRL-6323) in PBS at 2.0×10^6 cells/mL was subcutaneously inoculated into 5-week-old female mice (C57BL/6J from Charles River Laboratories Japan, Inc.) in a volume of 50 μL. 5 days after the inoculation, the mice were grouped in such a manner that there was substantially no difference in tumor volume between groups, and administration of the test compound was started. The test was conducted with a solvent group and a test compound administration group each having 10 mice. 0.5% methylcellulose (Shin-Etsu Chemical Co., Ltd.) was orally administered to the solvent group, and 0.5% methylcellulose mixed with the test compound was orally administered to the test compound administration group. The administration was performed for 10 days once daily, and the tumor diameter and the body weight were measured twice a week. The following expression was used for calculation of the tumor volume.
[tumor volume (mm^3)]=[tumor major diameter […]]×[tumor minor diameter (mm)]^2×0.5
The relative tumor growth inhibition (%) of the test compound was calculated, where the tumor volume of the solvent group immediately before the start of administration was set to 100% inhibition, and the tumor volume of the solvent group on the day after the last administration was set to 0% inhibition. […] In the table, Ex represents the number of each Example described below.

A further assay addresses human recombinant DGK ξ (Homo sapiens (Human), UniProt Q13574). Put plainly: Evaluation of DGK ξ inhibitory effect (ADP-Glo Kinase Assay). The format is biochemical. Particulars: ADP-Glo luminescence. As to the method:
Test Example 1. Evaluation of DGK ξ Inhibitory Effect
The inhibitory effect of a test compound on human recombinant DGK ξ (Cama Biosciences, Inc., 12-410-20N) was examined by the following method in which detection is performed with ADP-Glo™ Kinase Assay (Promega Corporation).
To a 384-well plate (Greiner Bio-One Co., Ltd.), 3 μL of a DGK ξ enzyme dissolved in an assay buffer (40 mM Tris-HCl pH 7.5, 10 mM MgCl2, 1 mM dithiothreitol (DTT) and 0.1 mg/mL bovine serum albumin (BSA)) (90 ng/mL) was added, and 3 μL of the test compound diluted with the same assay buffer was added so that an intended final concentration was obtained. The mixture was left standing at room temperature for 15 minutes, 3 μL of a substrate (150 μM 1-oleoyl-2-acetyl-sn-glycerol (Sigma-Aldrich Co. LLC), 480 μM phosphatidylserine (Avanti, Inc.) and 150 μM UltraPure-ATP (attached to ADP-Glo)) was then added, and the mixture was left standing at room temperature for 30 minutes to react. Thereafter, 3 μL of an ADP-Glo Reagent was added, and the mixture was left standing at room temperature for 40 minutes to stop the enzyme reaction. Further, 6 μL of a Kinase-Detection Reagent was added, the mixture was left standing at room temperature for 30 minutes, and the luminescence was then measured using ARVO X3 (PerkinElmer, Inc.). The half maximal inhibitory concentration (IC50) was calculated by Sigmoid-Emax model non-linear regression analysis, where the signal value in solvent treatment was set to 0% inhibition and the signal value without addition of the DGK ξ enzyme was set to 100% inhibition. […] In the table. Ex represents the number of each Example described below.
(In general: ADP-Glo first removes unused ATP, then detects ADP through luciferase.)

Structures are written as SMILES. Structures can show the parent of a compound that is named as a salt.

Chain of human recombinant DGK ξ (Q13574 whole entry): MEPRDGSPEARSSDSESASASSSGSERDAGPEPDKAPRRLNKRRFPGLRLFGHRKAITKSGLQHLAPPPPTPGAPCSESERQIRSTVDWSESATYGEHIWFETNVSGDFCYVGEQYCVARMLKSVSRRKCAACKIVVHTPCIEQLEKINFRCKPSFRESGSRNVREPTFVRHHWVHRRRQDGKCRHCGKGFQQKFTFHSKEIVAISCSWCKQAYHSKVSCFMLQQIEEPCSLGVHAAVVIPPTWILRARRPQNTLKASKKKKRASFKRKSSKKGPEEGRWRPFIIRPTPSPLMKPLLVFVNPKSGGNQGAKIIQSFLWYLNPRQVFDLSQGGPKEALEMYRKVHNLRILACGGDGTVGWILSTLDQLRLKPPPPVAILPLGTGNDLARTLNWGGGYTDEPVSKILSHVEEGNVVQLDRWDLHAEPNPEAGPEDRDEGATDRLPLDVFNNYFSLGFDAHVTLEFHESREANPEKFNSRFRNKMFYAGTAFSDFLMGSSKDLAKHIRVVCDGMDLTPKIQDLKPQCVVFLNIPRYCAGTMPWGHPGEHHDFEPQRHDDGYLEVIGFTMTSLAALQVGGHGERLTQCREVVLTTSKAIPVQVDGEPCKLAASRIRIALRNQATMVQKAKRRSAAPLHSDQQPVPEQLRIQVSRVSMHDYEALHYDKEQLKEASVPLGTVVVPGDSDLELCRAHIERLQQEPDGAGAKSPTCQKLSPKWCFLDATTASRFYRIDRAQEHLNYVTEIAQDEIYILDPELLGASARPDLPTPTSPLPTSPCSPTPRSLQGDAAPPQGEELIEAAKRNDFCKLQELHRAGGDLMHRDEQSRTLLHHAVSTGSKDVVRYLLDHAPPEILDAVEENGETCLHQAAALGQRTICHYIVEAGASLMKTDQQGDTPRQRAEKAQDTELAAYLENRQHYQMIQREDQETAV

For the molecule `NC[C@@H]1CCCN(c2c(NC(=O)c3ccn(CC(F)F)n3)ccc(Oc3ccccc3F)c2C(F)(F)F)C1` [Example 1, monohydrochloride], in assay [1], the EC (10-fold increase) was 0.11 µM. In addition, the inhibition in vivo at 0.03 mg/kg in the assay with B16-F1 cells is 35%. A word on the IC50: it is the concentration needed to halve the response being measured. Regarding `CN1CCN(c2c(NC(=O)c3ccn(CC(F)F)n3)ccc(Oc3ccccc3Cl)c2C(F)(F)F)C[C@@H]1CN` [Example 13], the IC50 on human recombinant DGK ξ was found to be 18 nM. For the same molecule, the EC (10-fold increase) in assay [1] was 0.34 µM. Also, the inhibition in vivo at 0.3 mg/kg in the assay on B16-F1 cells is 36%. The corresponding values for `CN1CCN(c2c(NC(=O)c3ccn(CC(F)F)n3)ccc(Oc3ccccc3Cl)c2Cl)C[C@@H]1CN` [Example 20] are 20 nM, 0.036 µM and 33%.

Consider `CNC[C@H]1CN(c2c(NC(=O)c3ccn(-c4ccnnc4)n3)ccc(Oc3ccccc3F)c2C(F)(F)F)CCN1C` [Example 29, N-[4-(2-fluorophenoxy)-2-{(3S)-4-methyl-3-[(methylamino)methyl]piperazin-1-yl}-3-(trifluoromethyl)phenyl]-1-(pyridazin-4-yl)-1H-pyrazole-3-carboxamide], for which, on human recombinant DGK ξ, the IC50 came to 10 nM. For the same molecule, the inhibition in vivo at 0.3 mg/kg with B16-F1 cells was 41%. For the molecule `NC[C@]1(F)CCCN(c2c(NC(=O)c3ccn(-c4ccnnc4)n3)ccc(Oc3ccccc3F)c2C(F)(F)F)C1` [Example 45], the IC50 at human recombinant DGK ξ amounted to 12 nM. The inhibition in vivo at 0.03 mg/kg in the assay on B16-F1 cells turned out to be 30%. For the molecule `CNC[C@@H]1CN(c2c(NC(=O)c3ccn(-c4ccnnc4)n3)ccc(Oc3ccccc3F)c2C(F)(F)F)CCN1C` [Example 47], the IC50 at human recombinant DGK ξ was 6.7 nM. Moreover, in the assay on B16-F1 cells, the inhibition in vivo at 0.3 mg/kg is 42%. For `CNC[C@H]1CN(c2c(NC(=O)c3ccn(-c4ccnnc4)n3)ccc(C3CCCC3)c2C(F)(F)F)CCN1C` [Example 48] the same measures were 5.8 nM and 40%. In the case of `N[C@@H]1CCN2CCN(c3c(NC(=O)c4coc(-c5ccnnc5)n4)ccc(Oc4ccccc4F)c3C(F)(F)F)C[C@@H]12` [Example 80], the IC50 at human recombinant DGK ξ was 45 nM. Moreover, the EC (10-fold increase) in assay [1] is 0.46 µM. In addition, the inhibition in vivo at 0.3 mg/kg in the assay on B16-F1 cells was 31%. As for `CNC[C@H]1CN(c2c(NC(=O)c3ccn(-c4ccnnc4)n3)ccc(Oc3ccccc3F)c2Cl)CCN1C` [Example 86, N-[3-chloro-4-(2-fluorophenoxy)-2-{(3S)-4-methyl-3-[(methylamino)methyl]piperazin-1-yl}phenyl]-1-(pyridazin-4-yl)-1H-pyrazole-3-carboxamide], at human recombinant DGK ξ, the IC50 amounted to 2.9 nM. Besides, the inhibition in vivo at 0.3 mg/kg with B16-F1 cells stood at 31%. In the case of `CN(C)[C@@H]1CCN2CCN(c3c(NC(=O)c4coc(-c5ccnnc5)n4)ccc(Oc4ccccc4F)c3C(F)(F)F)C[C@@H]12` [Example 120], the IC50 at human recombinant DGK ξ was found to be 4.3 nM. The same measure, in the same setting: with `CN(C)[C@@H]1CCN2CCN(c3c(NC(=O)c4ccn(-c5ccnnc5)n4)ccc(OC4CC4)c3C(F)(F)F)C[C@@H]12` [Example 121] the figure was 14 nM. As to `CNC[C@H]1CN(c2c(NC(=O)c3ccn(-c4ccnnc4)n3)ccc(Oc3ccccc3F)c2C(F)(F)F)CCN1C` [Example 122, N-[4-(2-fluorophenoxy)-2-{(3S)-4-methyl-3-[(methylamino)methyl]piperazin1-yl}-3-(trifluoromethyl)phenyl]-1-(pyridazin-4-yl)-1H-pyrazole-3-carboxamide monobutanedioate], the IC50 at human recombinant DGK ξ worked out at 3.2 nM.

Regarding `CNC[C@@H]1CN(c2c(NC(=O)c3ccn(-c4ccnnc4)n3)ccc(Oc3ccccc3F)c2C(F)(F)F)CCN1C` [Example 123, N-[4-(2-fluorophenoxy)-2-{(3R)-4-methyl-3-[(methylamino)methyl]piperazin1-yl}-3-(trifluoromethyl)phenyl]-1-(pyridazin-4-yl)-1H-pyrazole-3-carboxamide monobutanedioate], the IC50 on human recombinant DGK ξ was found to be 4 nM. For the molecule `CNC[C@H]1CN(c2c(NC(=O)c3ccn(-c4ccnnc4)n3)ccc(C3CCCC3)c2C(F)(F)F)CCN1C` [Example 124], the half-inhibitory concentration (IC50) on human recombinant DGK ξ amounted to 3.8 nM. As for `CNC[C@H]1CN(c2c(NC(=O)c3ccn(-c4ccnnc4)n3)ccc(Oc3ccccc3F)c2Cl)CCN1C` [Example 125], on human recombinant DGK ξ, the IC50 is 1.8 nM. Consider `NC[C@]1(F)CCCN(c2c(NC(=O)c3ccn(-c4ccnnc4)n3)ccc(Oc3ccccc3F)c2C(F)(F)F)C1` [Example 126, N-{2-[(3R)-3-(aminomethyl)-3-fluoropiperidin-1-yl]-4-(2-fluorophenoxy)-3-(trifluoromethyl)phenyl}-1-(pyridazin-4-yl)-1H-pyrazole-3-carboxamide monobutanedioate], for which the IC50 at human recombinant DGK ξ was 6.2 nM.
